Reference: paper PMC9612383, “Biological Activity of NHC-Gold-Alkynyl Complexes Derived from 3-Hydroxyflavones” (Pharmaceutics, 2022)
Read-outs that look alike come from different tables or passages of the source. Blank lines part the entries; values can stand above or below the molecule they belong to.

Tests used:
[1] = test system: panel of Gram-positive and Gram-negative strains; assay: Disk diffusion method, whole panel (summary in words); assay type: cell-based; conditions: for antibacterial effect (in words): whole panel, Gram-positive and Gram-negative strains
Experimental: (§1) To evaluate the antibacterial potential of gold derivatives, […] bacterial strains were selected: E. coli, P. aeruginosa, S. enterica, E. faecalis, L. monocytogenes, S. epidermidis, S. aureus. Dis diffusion assay was performed following Clinical & Laboratory Standards Institute (CLSI) recommendations. Active cultures (0.5 McFarland) from all strains were spread onto Mueller–Hinton Agar (MHA, Oxoid, Basingstoke, UK) and disks impregnated with 10 µL of each gold complex or control (DMSO for negative control, phenol for positive control) were placed. Plates were and incubated for 22 h ± 2 h at 37 °C ± 1 °C and then the diameter of the inhibition zone was determined.
Given that NHC-gold derivatives might display antibacterial activity, we evaluated the antibacterial effect of the complexes toward a panel of Gram-positive and Gram-negative strains using the disk diffusion method. The selected strains are human pathogen or commensal bacteria and the results are summarized on Table 1.

Caco-2 cells [2] = assay: MTT antiproliferative assay; assay type: cell-based, Human; conditions: for IC50: Caco-2 cell line, 72 h incubation, mean ± SE
Experimental: Human colorectal adenocarcinoma Caco-2 cells were kindly provided by Dr. Edith Brot-Laroche (Universite Pierre et Marie Curie-Paris 6 UMR S872, Les Cordeliers, France) and were maintained in a humidified atmosphere of 5% CO2 at 37 °C in Dulbecco’s Modified Eagles medium (DMEM) (Gibco Invitrogen, Paisley, UK) supplemented with 20% fetal bovine serum, 1% non-essential amino acids, 1% penicillin (1000 U/mL), 1% streptomycin ([…]) and 1% amphotericin (250 U/mL). For treatment, gold complexes were initially dissolved in DMSO to a concentration of 20 mM and then diluted on cell culture without fetal bovine serum to the required work concentrations, which was added 24 h post-seeding. Then, cells were incubated at 37 °C for the required time for each assay.
Cell viability was determined with the 3-(4,5-dimethyl-2-thiazoyl)-2,5-diphenyltetrazolium bromide (MTT) assay as previously described by Mármol et al.. For IC50 calculation, cells were grown in 96-well plates at a density of 4000 cells per well and incubated overnight at standard culture conditions. Then, cells were exposed 72 h to 0–20 μM of each gold complex and changes in absorbance were converted into percentage of growth inhibition in comparison to negative control (DMSO. Absorbance was measured with SPECTROstar Nano (BMG Labtech).

[3] = n-Octanol-water distribution coefficient, shake-flask; assay type: physicochemical; conditions: for LogP7.4 (distribution coefficient): n-octanol / buffered aqueous solution pH 7.4
Experimental: The n-octanol-water coefficients of the complexes were determined as previously reported using a shake-flask method. Buffered-saline distilled water (100 mL, phosphate buffer [PO4^3−] = 10 mM, [NaCl] = 0.15 M, pH 7.4) and n-octanol (100 mL) were shaken for 72 h to allow saturation of both phases. Approximately 1 mg of the complexes was dissolved in 5 mL of the aqueous phase and 5 mL of the organic phase were added, mixing for 10 min. The resulting emulsion was centrifuged to separate the phases. The concentration of the compounds in each phase was determined using UV absorbance spectroscopy. LogP was defined as log{[compound(organic)]/[compound(aqueous)]}.

S. aureus 2593 = assay: Disk diffusion test; assay type: cell-based; conditions: for Inhibition Zone: complex 5 μg, 24 h incubation, diameter including disk (6 mm)
Experimental: (§2) To evaluate the antibacterial potential of gold derivatives, six bacterial strains were selected: E. coli, P. aeruginosa, S. enterica, E. faecalis, L. monocytogenes, S. epidermidis, S. aureus. Dis diffusion assay was performed following Clinical & Laboratory Standards Institute (CLSI) recommendations. […] Plates were and incubated for 22 h ± 2 h at 37 °C ± 1 °C and then the diameter of the inhibition zone was determined.

S. epidermidis = assay: Disk diffusion test; assay type: cell-based; conditions: for Inhibition Zone: complex 5 μg, 24 h incubation, diameter including disk (6 mm)
Experimental: as §2

P. aeruginosa = assay: Disk diffusion test; assay type: cell-based; conditions: for Inhibition Zone: complex 5 μg, 24 h incubation, diameter including disk (6 mm)
Experimental: as §2

E. faecalis = assay: Disk diffusion test; assay type: cell-based; conditions: for Inhibition Zone: complex 5 μg, 24 h incubation, diameter including disk (6 mm)
Experimental: as §2

S. aureus 13565 = assay: Disk diffusion test; assay type: cell-based; conditions: for Inhibition Zone: complex 5 μg, 24 h incubation, diameter including disk (6 mm)
Experimental: as §2

L. monocytogenes = assay: Disk diffusion test; assay type: cell-based; conditions: for Inhibition Zone: complex 5 μg, 24 h incubation, diameter including disk (6 mm)
Experimental: as §2

E. coli 8739 = assay: Disk diffusion test; assay type: cell-based
Experimental: as §2

E. coli 13216 = assay: Disk diffusion test; assay type: cell-based
Experimental: as §2

E. coli 25922 = assay: Disk diffusion test; assay type: cell-based; conditions: Escherichia coli, 25922, 24 h, read-out: Inhibition Zone
Experimental: as §2

S. enterica 14028 = assay: Disk diffusion test; assay type: cell-based; conditions: Salmonella enterica, 14028, 24 h, read-out: Inhibition Zone
Experimental: as §2

S. enterica 25928 = assay: Disk diffusion test; assay type: cell-based; conditions: Salmonella enterica, 25928; positive control 5.35 mg, 24 h incubation; diameter including disk (6 mm)
Experimental: as §1

Caco-2 cells [4] = test system: Caco-2 cells; set-up: method as in PMID 31546196; conditions: earlier work of the authors; cited from earlier work
[5] = test system: thioredoxin reductase enzyme; set-up: method as in PMID 31546196; conditions: earlier work of the authors; cited from earlier work
Caco-2 cells [6] = test system: Caco-2 cells; set-up: method as in PMID 31546196; conditions: cited from earlier work
[7] = set-up: method as in PMID 31546196; conditions: cited from earlier work
[8] = complex 5 μg, 24 h incubation, diameter including disk (6 mm)

SMILES: Cn1cc[n+](C)[c]1[Au-][C]#CCOc1c(-c2ccccc2)oc2ccccc2c1=O [1a, [Au(La)(IMe)] (R = H; IMe = C5H10N2)]
antibacterial effect (in words) [1]: no antibacterial effect
IC50 (Caco-2 cells [2]): 43.3 ± 5.06 µM
LogP7.4 (distribution coefficient) [3]: 0.34

SMILES: Cn1cc[n+](C)[c]1[Au-][C]#CCOc1c(-c2ccc(Cl)cc2)oc2ccccc2c1=O [1c, [Au(Lc)(IMe)] (R = Cl; IMe = C5H10N2)]
antibacterial effect (in words) [1]: no antibacterial effect
IC50 (Caco-2 cells [2]): 15.1 ± 3.04 µM
LogP7.4 (distribution coefficient) [3]: 1.96

SMILES: COc1ccc(-c2oc3ccccc3c(=O)c2OCC#[C][Au-][c]2n(C)cc[n+]2C)cc1 [1d, [Au(Ld)(IMe)] (R = OMe; IMe = C5H10N2)]
Inhibition Zone (S. aureus 2593): 9.70 ± 0.02 mm
Inhibition Zone (S. epidermidis): 17.23 ± 0.87 mm
Inhibition Zone (P. aeruginosa): -
Inhibition Zone (E. faecalis): 9.47 ± 1.67 mm
Inhibition Zone (S. aureus 13565): 11.86 ± 0.20 mm
Inhibition Zone (L. monocytogenes): 14.25 ± 1.06 mm
antibacterial effect on Gram-negative strains (in words) [1]: inactive against Gram-negative strains
antibacterial effect on Gram-positive strains (in words) [1]: able to inhibit the growth of all Gram-positive bacterial strains
IC50 (Caco-2 cells [2]): 16.3 ± 1.04 µM
LogP7.4 (distribution coefficient) [3]: 0.22

fold lower IC50 of 2a than homologue 1a (Caco-2 cells [2]; Caco-2, 72 h, p < 0.05): 2.65 times
IC50 (Caco-2 cells [2]): 16.3 ± 2.04 µM
LogP7.4 (distribution coefficient) [3]: 0.42
SMILES: CC(C)c1cccc(C(C)C)c1-n1cc[n+](-c2c(C(C)C)cccc2C(C)C)[c]1[Au-][C]#CCOc1c(-c2ccccc2)oc2ccccc2c1=O [2a, [Au(La)(IPr)] (R = H; IPr = C27H38N2)]
lipophilic character (in words) ([3]; from log P, pH 7.4): balanced hydrophilic-lipophilic character

SMILES: CC(C)c1cccc(C(C)C)c1-n1cc[n+](-c2c(C(C)C)cccc2C(C)C)[c]1[Au-][C]#CCOc1c(-c2ccc(Br)cc2)oc2ccccc2c1=O [2b, [Au(Lb)(IPr)] (R = Br; IPr = C27H38N2)]
Inhibition Zone (E. coli 8739; [8]): 8.97 ± 0.49 mm
Inhibition Zone (S. aureus 2593): 12.79 ± 1.11 mm
Inhibition Zone (S. epidermidis): 20.95 ± 0.91 mm
Inhibition Zone (E. coli 13216; [8]): 8.10 ± 0.60 mm
Inhibition Zone (P. aeruginosa): -
Inhibition Zone (E. faecalis): 12.1 ± 0.99 mm
Inhibition Zone (S. aureus 13565): 14.03 ± 0.17 mm
Inhibition Zone (L. monocytogenes): 17.17 ± 0.24 mm
antibacterial effect (in words) [1]: able to interfere with the development of both Gram positive and Gram negative strains
IC50 (Caco-2 cells [2]): 53.9 ± 22.7 µM
LogP7.4 (distribution coefficient) [3]: 1.47

SMILES: CC(C)c1cccc(C(C)C)c1-n1cc[n+](-c2c(C(C)C)cccc2C(C)C)[c]1[Au-][C]#CCOc1c(-c2ccc(Cl)cc2)oc2ccccc2c1=O [2c, [Au(Lc)(IPr)] (R = Cl; IPr = C27H38N2)]
Inhibition Zone (S. aureus 2593): 10.49 ± 1.13 mm
Inhibition Zone (S. epidermidis): 18.06 ± 2.04 mm
Inhibition Zone (P. aeruginosa): -
Inhibition Zone (E. faecalis): 10.25 ± 1.41 mm
Inhibition Zone (S. aureus 13565): 12.19 ± 0.88 mm
Inhibition Zone (L. monocytogenes): 15.33 ± 0.47 mm
antibacterial effect on Gram-negative strains (in words) [1]: inactive against Gram-negative strains
antibacterial effect on Gram-positive strains (in words) [1]: able to inhibit the growth of all Gram-positive bacterial strains
IC50 (Caco-2 cells [2]): 46.1 ± 22.5 µM
LogP7.4 (distribution coefficient) [3]: 1.11

SMILES: COc1ccc(-c2oc3ccccc3c(=O)c2OCC#[C][Au-][c]2n(-c3c(C(C)C)cccc3C(C)C)cc[n+]2-c2c(C(C)C)cccc2C(C)C)cc1 [2d, [Au(Ld)(IPr)] (R = OMe; IPr = C27H38N2)]
antibacterial effect (in words) [1]: no antibacterial effect
IC50 (Caco-2 cells [2]): 48.2 ± 14.6 µM
LogP7.4 (distribution coefficient) [3]: 3.40

SMILES: CC(=O)OC[C@H]1O[C@@H]([S-])[C@H](OC(C)=O)[C@@H](OC(C)=O)[C@@H]1OC(C)=O.CCP(CC)CC.[Au+] [Auranofin, 2,3,4,6-tetraacetyl-1-thio-β-D-glucopyranosato-S-triethylphosphane gold(I), reference compound]
IC50 (Caco-2 cells [2]): 1.8 ± 0.1 µM
LogP7.4 (distribution coefficient) [3]: −2.53

SMILES: Oc1ccccc1 [Phenol, reference compound]
zone of inhibition at 5350 µg/disc (E. coli 8739; Escherichia coli, 8739, 24 h, read-out: Inhibition Zone): 22.7 ± 1.37 mm
zone of inhibition at 5350 µg/disc (E. coli 25922): 23.4 ± 1.26 mm
zone of inhibition at 5350 µg/disc (S. aureus 2593; Staphylococcus aureus, 2593, 24 h, read-out: Inhibition Zone): 12.1 ± 0.73 mm
zone of inhibition at 5350 µg/disc (S. enterica 14028): 27.8 ± 1.11 mm
zone of inhibition at 5350 µg/disc (S. epidermidis; Staphylococcus epidermidis, 24 h, read-out: Inhibition Zone): 22.7 ± 4.49 mm
zone of inhibition at 5350 µg/disc (E. coli 13216; Escherichia coli, 13216, 24 h, read-out: Inhibition Zone): 20.7 ± 2.97 mm
zone of inhibition at 5350 µg/disc (P. aeruginosa; Pseudomonas aeruginosa, 24 h, read-out: Inhibition Zone): 30.5 ± 1.45 mm
zone of inhibition at 5350 µg/disc (E. faecalis; Enterococcus faecalis, 24 h, read-out: Inhibition Zone): 13.5 ± 2.12 mm
zone of inhibition at 5350 µg/disc (S. aureus 13565; Staphylococcus aureus, 13565, 24 h, read-out: Inhibition Zone): 17.2 ± 3.38 mm
zone of inhibition at 5350 µg/disc (L. monocytogenes; Listeria monocytogenes, 24 h, read-out: Inhibition Zone): 16.58 ± 0.12 mm
zone of inhibition at 5350 µg/disc (S. enterica 25928): 19.2 ± 0.42 mm

SMILES: O=c1c(OCC#[C][Au][PH](c2ccccc2)(c2ccccc2)c2ccccc2)c(-c2ccc(Br)cc2)oc2ccccc12 [[Au(L2b)PPh3]]
ROS levels (in words) (Caco-2 cells [4]): induce an increase in ROS levels
thioredoxin reductase inhibition (in words) [5]: able to inhibit thioredoxin reductase enzyme

SMILES: O=c1c(OCC#[C][Au][PH](c2ccccc2)(c2ccccc2)c2ccccc2)c(-c2ccc(Cl)cc2)oc2ccccc12 [[Au(L2c)PPh3]]
IC50 (Caco-2 cells [6]): 5.34 ± 0.05 µM
distribution coefficient value [7]: 1.17

IC50 (Caco-2 cells [2]): > 100 µM
SMILES: Cn1ccn(C)[c]1=[Au-2][Cl] [[AuCl(IMe)], reference compound]
antiproliferative effect (in words) (Caco-2 cells [2]; Caco-2 cells): ineffective

IC50 (Caco-2 cells [2]): 9.09 ± 3.22 µM
SMILES: CC(C)c1cccc(C(C)C)c1-n1ccn(-c2c(C(C)C)cccc2C(C)C)[c]1=[Au][Cl] [[AuCl(IPr)], reference compound]
